Key:
[1] = Stability of T and DHT in NaF/Na2EDTA plasma in presence of TU, DHTU and glucuronides (method validation); conditions: for increase of the T and DHT concentrations (degradation of TU and DHTU into T or DHT): low and high QCs, room temperature or 4°C, long-term storage at -20 and -80°C; for % Bias of dihydrotestosterone concentration / % Bias of testosterone concentration: DHTU and glucuronides
Procedure: The methods were validated as per the most recent US FDA and EMA validation guidelines. During the method validation, the accuracy, precision, within-run, between-run, selectivity, matrix effect as well as the stability (stability in whole blood at 4°C, short-term stability in matrix at room temperature, freeze–thaw stability at -20°C/-80°C, long-term stability at -20°C/-80°C) were evaluated.
The impact of the glucuronide was also assessed in whole blood during sample collection and handling.
Moreover, the possible degradation of TU and DHTU into T or DHT was assessed when low and high T and DHT level quality controls were submitted to freeze–thaw cycles, incubation at room temperature or 4°C and long-term storage at -20 and -80°C.
Low QC samples were fortified with testosterone undecanoate (3000 ng/dL), dihydrotestosterone undecanoate (1500 ng/dL), testosterone glucuronide (800 ng/dL) and dihydrotestosterone undecanoate (400 ng/dL). High QC samples were fortified with testosterone undecanoate (219000 ng/dL), dihydrotestosterone undecanoate (235100 ng/dL), testosterone glucuronide (93600 ng/dL) and dihydrotestosterone undecanoate (21900 ng/dL). The%Bias must be within 15%.

[2] = Clinical study of oral TU: T and DHT in serum versus NaF/Na2 EDTA plasma; conditions: day 84, oral TU twice daily, fed, 15 hypogonadal men; serum vs NaF-Na2 EDTA plasma
Procedure: A clinical study was performed at the inVentiv Health Clinical facilities where fifteen asymptomatic hypogonadal male subjects aged 18 to 75 years were administered an oral dose of TU twice daily for 84 consecutive days under fed conditions. Each volunteer was informed on the risk of procedure and risk of the clinical study by signing the informed consent. On day 84, serum and plasma samples were collected predose and at 1.5, 3, 4, 5, 6, 8, 10, 12, 13.5, 15, 16, 17, 18, 20, 22 and 24 h after the morning dose. One of the main objectives of this study part was to compare the levels of T and DHT measured with a validated method in NaF/Na2 EDTA plasma to the levels measured in serum.
Pharmacokinetic (PK) parameters were assessed using samples collected on day 84: Ln-transformed area under the concentration–time curve (AUC0–24) and the maximum concentration of analyte (Cmax0–24) obtained with the study samples collected from 0–24 h after the morning dose of TU on last study day 84 were used to compare the levels of testosterone, DHT, TU and DHTU measured in serum in comparison to the levels measured in plasma.
Data reported in Table 5 were obtained from a cohort of 15 subjects undergoing a clinical study of a novel formulation of TU. Table 5 presents summaries of the comparison of the PK results for T and DHT obtained using serum and plasma samples for each analyte. Figure 2 presents the mean analyte concentrations obtained from the serum and plasma samples.

[3] = TU to T conversion depending on the TU spiking solvent used; format: in vitro ADME, human
Procedure: We decided to investigate further to better understand the discordance between the conclusions. Literature descriptions of sample preparations include a stock solution prepared in ethanol and diluted in phosphate buffer saline (PBS). In the experiments carried out in the study reported here, it was observed that the stock and spiking solution preparation is very important. A stock solution of TU was prepared in ethanol and diluted with PBS prior to being added to whole blood. Results from this procedure were compared with those typically used in our experiments with TU stock prepared and diluted using methanol, prior to being added to whole blood. It was observed that a precipitate occurred in the PBS solution after a freeze–thaw cycle.
To investigate this effect further, freshly collected whole blood was collected in conventional serum tubes and in NaF/K2C2O4 tubes. Each whole blood tube was fortified with TU at a final concentration of 60,000 ng/dl with solution prepared either in methanol or in ethanol/PBS; each experiment was performed in triplicate. Serum samples were incubated at room temperature for 30 and 60 min, and plasma samples were incubated for 10, 30 and 60 min at 4°C. T and TU were analyzed in the plasma and serum samples obtained.

[4] = in serum or plasma, sometimes; cited from earlier work
[5] = conclusion of a published method validation; cited from earlier work

CCCCCCCCCCC(=O)O[C@H]1CCC2C3CCC4CC(=O)CC[C@]4(C)C3CC[C@@]21C (stereo partly drawn) [DHTU, 5-alpha-dihydrotestosterone undecanoate]
increase of the T and DHT concentrations (degradation of TU and DHTU into T or DHT) ([1]; freeze–thaw cycles): No increase

C[C@]12CCC(=O)C[C@@H]1CC[C@@H]1[C@@H]2CC[C@]2(C)[C@@H](O)CC[C@@H]12 [Dihydrotestosterone, dihydrotestosterone]
Ratio (serum/plasma) of AUC0–24 [2]: 122.40% | Ratio (serum/plasma) of Cmax0–24 [2]: 130.61% | % Bias of dihydrotestosterone concentration ([1]; High QC 430.0 ng/dL fortified with TU, Freeze/Thaw at -20°C (4 Cycles)): -10.2% | % Bias of dihydrotestosterone concentration ([1]; High QC 430.0 ng/dL fortified with TU, Freeze/Thaw at -80°C (4 Cycles)): -10.7% | % Bias of dihydrotestosterone concentration ([1]; High QC 430.0 ng/dL fortified with TU, Long-Term at -20°C for 14 days): -4.4% | % Bias of dihydrotestosterone concentration ([1]; High QC 430.0 ng/dL fortified with TU, Long-Term at -80°C for 14 days): -5.4% | % Bias of dihydrotestosterone concentration ([1]; High QC 430.0 ng/dL fortified with TU, Post-Preparative at RT for 69 hrs): 8.6% | % Bias of dihydrotestosterone concentration ([1]; High QC 430.0 ng/dL fortified with TU, Short-Term at 4°C for 21 hrs): -0.5% | % Bias of dihydrotestosterone concentration ([1]; High QC 430.0 ng/dL fortified with TU, Short-Term at RT for 23 hrs): 2.5% | % Bias of dihydrotestosterone concentration ([1]; High QC 430.0 ng/dL fortified with TU, Whole Blood on Ice for 110 min): 0.3% | % Bias of dihydrotestosterone concentration ([1]; Low QC 19.2 ng/dL fortified with TU, Freeze/Thaw at -20°C (4 Cycles)): -14.6% | % Bias of dihydrotestosterone concentration ([1]; Low QC 19.2 ng/dL fortified with TU, Freeze/Thaw at -80°C (4 Cycles)): -14.9% | % Bias of dihydrotestosterone concentration ([1]; Low QC 19.2 ng/dL fortified with TU, Long-Term at -20°C for 14 days): -8.7% | % Bias of dihydrotestosterone concentration ([1]; Low QC 19.2 ng/dL fortified with TU, Long-Term at -80°C for 14 days): -8.1% | % Bias of dihydrotestosterone concentration ([1]; Low QC 19.2 ng/dL fortified with TU, Post-Preparative at RT for 69 hrs): 5.1% | % Bias of dihydrotestosterone concentration ([1]; Low QC 19.2 ng/dL fortified with TU, Short-Term at 4°C for 21 hrs): -9.1% | % Bias of dihydrotestosterone concentration ([1]; Low QC 19.2 ng/dL fortified with TU, Short-Term at RT for 23 hrs): -6.1% | % Bias of dihydrotestosterone concentration ([1]; Low QC 19.2 ng/dL fortified with TU, Whole Blood on Ice for 110 min): -6.1%

CCCCCCCCCCC(=O)O[C@H]1CCC2C3CCC4=CC(=O)CC[C@]4(C)C3CC[C@@]21C (stereo partly drawn) [TU, Testosterone undecanoate]
Mean TU Concentration ([3]; whole blood spiked with TU in PBS, 60,000 ng/dl, 30 min serum RT): 3991.0 ng/dL | Mean TU Concentration ([3]; whole blood spiked with TU in PBS, 60,000 ng/dl, 60 min serum RT): 5892.3 ng/dL | Mean TU Concentration ([3]; whole blood spiked with TU in PBS, 60,000 ng/dl, NaF/K2C2O4 plasma 10 min 4°C): 74408.7 ng/dL | Mean TU Concentration ([3]; whole blood spiked with TU in PBS, 60,000 ng/dl, NaF/K2C2O4 plasma 30 min 4°C): 54088.0 ng/dL | Mean TU Concentration ([3]; whole blood spiked with TU in PBS, 60,000 ng/dl, NaF/K2C2O4 plasma 60 min 4°C): 26618.7 ng/dL | Mean TU Concentration ([3]; whole blood spiked with TU in methanol, 60,000 ng/dl, 30 min serum RT): 97110.3 ng/dL | Mean TU Concentration ([3]; whole blood spiked with TU in methanol, 60,000 ng/dl, 60 min serum RT): 96132.3 ng/dL | Mean TU Concentration ([3]; whole blood spiked with TU in methanol, 60,000 ng/dl, NaF/K2C2O4 plasma 10 min 4°C): 97235.0 ng/dL | Mean TU Concentration ([3]; whole blood spiked with TU in methanol, 60,000 ng/dl, NaF/K2C2O4 plasma 30 min 4°C): 95628.0 ng/dL | Mean TU Concentration ([3]; whole blood spiked with TU in methanol, 60,000 ng/dl, NaF/K2C2O4 plasma 60 min 4°C): 93816.3 ng/dL | TU concentration higher than the testosterone concentration [4]: 20- to 30 times | increase of the T and DHT concentrations (degradation of TU and DHTU into T or DHT) ([1]; freeze–thaw cycles): No increase | stability of TU in blood [5]: stable

C[C@]12CC[C@H]3[C@@H](CCC4=CC(=O)CC[C@@]43C)[C@@H]1CC[C@@H]2O[C@@H]1O[C@H](C(=O)O)[C@@H](O)[C@H](O)[C@H]1O [Testosterone glucuronide, testosterone glucuronide]
impact on the quantitation of T and DHT ([1]; low and high QCs fortified with testosterone glucuronide, freeze–thaw cycles, room temperature, 4°C, long-term storage at -20 or -80°C): no impact

C[C@]12CC[C@H]3[C@@H](CCC4=CC(=O)CC[C@@]43C)[C@@H]1CC[C@@H]2O [Testosterone, testosterone]
Ratio (serum/plasma) of AUC0–24 [2]: 130.02% | Ratio (serum/plasma) of Cmax0–24 [2]: 134.01% | % Bias of testosterone concentration ([1]; High QC 2300.0 ng/dL fortified with TU, Freeze/Thaw at -20°C (4 Cycles)): -3.3% | % Bias of testosterone concentration ([1]; High QC 2300.0 ng/dL fortified with TU, Freeze/Thaw at -80°C (4 Cycles)): -3.4% | % Bias of testosterone concentration ([1]; High QC 2300.0 ng/dL fortified with TU, Long-Term at -20°C for 14 days): -1.8% | % Bias of testosterone concentration ([1]; High QC 2300.0 ng/dL fortified with TU, Long-Term at -80°C for 14 days): -3.1% | % Bias of testosterone concentration ([1]; High QC 2300.0 ng/dL fortified with TU, Post-Preparative at RT for 69 hrs): 10.1% | % Bias of testosterone concentration ([1]; High QC 2300.0 ng/dL fortified with TU, Short-Term at 4°C for 21 hrs): 0.6% | % Bias of testosterone concentration ([1]; High QC 2300.0 ng/dL fortified with TU, Short-Term at RmT for 23 hrs): 0.2% | % Bias of testosterone concentration ([1]; High QC 2300.0 ng/dL fortified with TU, Whole Blood on ice for 110 min): 8.3% | % Bias of testosterone concentration ([1]; Low QC 40.0 ng/dL fortified with TU, Freeze/Thaw at -20°C (4 Cycles)): -5.8% | % Bias of testosterone concentration ([1]; Low QC 40.0 ng/dL fortified with TU, Freeze/Thaw at -80°C (4 Cycles)): -5.8% | % Bias of testosterone concentration ([1]; Low QC 40.0 ng/dL fortified with TU, Long-Term at -20°C for 14 days): -1.9% | % Bias of testosterone concentration ([1]; Low QC 40.0 ng/dL fortified with TU, Long-Term at -80°C for 14 days): 2.1% | % Bias of testosterone concentration ([1]; Low QC 40.0 ng/dL fortified with TU, Post-Preparative at RT for 69 hrs): 14.0% | % Bias of testosterone concentration ([1]; Low QC 40.0 ng/dL fortified with TU, Short-Term at 4°C for 21 hrs): -4.2% | % Bias of testosterone concentration ([1]; Low QC 40.0 ng/dL fortified with TU, Short-Term at RmT for 23 hrs): -2.5% | % Bias of testosterone concentration ([1]; Low QC 40.0 ng/dL fortified with TU, Whole Blood on ice for 110 min): -11.1%

— article PMC5137954, “Importance of measuring testosterone in enzyme-inhibited plasma for oral testosterone undecanoate androgen replacement therapy clinical trials” (Future Science OA, 2015)
